In ChEMBL document CHEMBL3352668, “Synthesis and antibacterial evaluation of new, unsymmetrical triaryl bisamidine compounds” (Bioorg Med Chem Lett, 2014) one finds MIC and CC50 data, which are given here for eleven compounds.

Data set [1] has as its system Enterococcus faecalis. In words: Antimicrobial activity against vancomycin-resistant Enterococcus faecalis ATCC 51575 by CLSI method. The class given is functional. As to conditions: Enterococcus faecalis, ATCC 51575; read-out: MIC.
A short description of data set [2]: Cytotoxicity against human HeLa cells by MTS assay. Conditions: HeLa cells. The class given is cell-based. In general terms: Tetrazolium assays rely on reduction of a dye to a coloured formazan, in cell work by metabolically active cells.
The subject of data set [3] is Staphylococcus aureus. Description: Antimicrobial activity against methicillin-resistant Staphylococcus aureus 1094 by CLSI method. The class given is functional. As to conditions: Staphylococcus aureus, 1094; read-out: MIC.
The test system of data set [4] is Escherichia coli. In words: Antimicrobial activity against TolC+ Escherichia coli 700 by CLSI method. Conditions: Escherichia coli, 700; read-out: MIC. The class given is functional.
Data set [5] concerns Escherichia coli. In words: Antimicrobial activity against TolC-deficient Escherichia coli by CLSI method. The data set is classed as functional. As to conditions: Escherichia coli; read-out: MIC.
The test system of data set [6] is Bacillus subtilis. Description: Antimicrobial activity against Bacillus subtilis BD54 by CLSI method. The data set is classed as functional. Conditions: Bacillus subtilis, BD54; read-out: MIC.
Data set [7] concerns Klebsiella pneumoniae. Description: Antimicrobial activity against Klebsiella pneumoniae 13882 by CLSI method. The class given is functional. As to conditions: Klebsiella pneumoniae, 13882; read-out: MIC.
Data set [8] deals with Pseudomonas aeruginosa. In words: Antimicrobial activity against Pseudomonas aeruginosa PAO1 by CLSI method. The class given is functional. As to conditions: Pseudomonas aeruginosa, PAO1; read-out: MIC.
Data set [9] deals with Bacillus anthracis. Description: Antimicrobial activity against Bacillus anthracis Sterne by CLSI method. As to conditions: Bacillus anthracis, Sterne; read-out: MIC. The class given is functional.

In brackets after ≈: the same amount, converted by molar mass. Some results are limits rather than exact numbers.

For the compound `FC1CN=C(c2ccc3cc(-c4ccc(-c5cc6ccc(C7=NCC(F)CN7)cc6o5)s4)[nH]c3c2)NC1` (configuration not stated), the MIC (as a rule, the lowest concentration found to suppress growth) is 0.63 µg/mL (≈ 1.22 µM) in data set [1]; 0.63 µg/mL (≈ 1.22 µM) in data set [3]; 1.25 µg/mL (≈ 2.42 µM) in [4]; 0.31 µg/mL (≈ 0.601 µM) in data set [5]; 0.16 µg/mL (≈ 0.31 µM) in data set [6]; 2.5 µg/mL (≈ 4.85 µM) in [7]. The values for the minimum inhibitory concentration (MIC) in data set [8] and in [9] were 53.3 µg/mL (≈ 103 µM) and 0.31 µg/mL (≈ 0.601 µM), respectively. For the same compound, the 50% cytotoxic concentration (CC50) – broadly, the concentration at which the toxic effect on the cells reaches its halfway point – in data set [2] amounted to 22.5 µg/mL (≈ 43.6 µM).

For the compound `OC1CN=C(c2ccc3cc(-c4ccc(-c5cc6ccc(C7=NCC(O)CN7)cc6o5)cn4)[nH]c3c2)NC1` (configuration not stated), the MIC turned out to be 5 µg/mL (≈ 9.87 µM) in data set [1]; 2.5 µg/mL (≈ 4.94 µM) in data set [3]; 80 µg/mL (≈ 158 µM) in data set [4]; 0.63 µg/mL (≈ 1.24 µM) in data set [5]; 3.75 µg/mL (≈ 7.4 µM) in data set [6]; 8.8 µg/mL (≈ 17.4 µM) in data set [7]. Also, the results for the MIC in data set [8] and in [9] were 25 µg/mL (≈ 49.4 µM) and 1.09 µg/mL (≈ 2.15 µM), respectively. Also, the 50% cytotoxic concentration (CC50) in data set [2] is 16.7 µg/mL (≈ 33 µM).

`CC1CNC(c2ccc3cc(-c4ccc(-c5cc6ccc(C7=NC(C)CN7)cc6o5)s4)[nH]c3c2)=N1` (configuration not stated): the MIC in data set [1] is 0.63 µg/mL (≈ 1.31 µM); in data set [3], 1.04 µg/mL (≈ 2.17 µM); in data set [4], 1.25 µg/mL (≈ 2.61 µM); in data set [5], 0.63 µg/mL (≈ 1.31 µM); in data set [6] it was 0.31 µg/mL (≈ 0.646 µM); in data set [7] it was 20 µg/mL (≈ 41.7 µM). Moreover, the results for the MIC in data set [8] and in data set [9] were 26.7 µg/mL (≈ 55.7 µM) and 0.52 µg/mL (≈ 1.08 µM), respectively. In addition, in data set [2], the CC50 was 14.5 µg/mL (≈ 30.2 µM).

Take `c1cc2cc(-c3ccc(-c4cc5ccc(C6=NCCCN6)cc5o4)s3)[nH]c2cc1C1=NCCCN1`: the MIC in [1] is 0.31 µg/mL (≈ 0.646 µM); in [3], 0.31 µg/mL (≈ 0.646 µM); in data set [4], 0.63 µg/mL (≈ 1.31 µM); in data set [5], 0.31 µg/mL (≈ 0.646 µM); in data set [6], 0.08 µg/mL (≈ 0.167 µM); in data set [7], 2.5 µg/mL (≈ 5.21 µM). For the same compound, the figures for the MIC in data set [8] and in data set [9] were 10 µg/mL (≈ 20.9 µM) and 0.16 µg/mL (≈ 0.334 µM), respectively. In data set [2], this compound showed a CC50 of 8.7 µg/mL (≈ 18.1 µM).

Turning to `Cc1c(-c2ccc(-c3cc4ccc(C5=NCCCN5)cc4o3)cc2)[nH]c2cccc(C#N)c12`, the MIC was 5 µg/mL (≈ 11.6 µM) in data set [1]; 5 µg/mL (≈ 11.6 µM) in data set [3]; 20 µg/mL (≈ 46.5 µM) in [4]; 10 µg/mL (≈ 23.2 µM) in data set [5]; 2.5 µg/mL (≈ 5.81 µM) in data set [6]; 20 µg/mL (≈ 46.5 µM) in [7]. Also, the MIC in [8] stood at 40 µg/mL (≈ 92.9 µM); in data set [9] it was 2.5 µg/mL (≈ 5.81 µM).

Consider `CC1CNC(c2ccc3cc(-c4ccc(-c5ccc(N(C)C)cc5)cc4)[nH]c3c2)=N1` (configuration not stated), for which the MIC was 3.3 µg/mL (≈ 8.36 µM) in [1]; 1.04 µg/mL (≈ 2.64 µM) in data set [3]; over 80 µg/mL in [4]; over 80 µg/mL in [5]; 0.63 µg/mL (≈ 1.6 µM) in data set [6]; over 80 µg/mL in data set [7]. In addition, the MIC in [8] is over 80 µg/mL; in data set [9], 2.1 µg/mL (≈ 5.32 µM). In addition, in data set [2], the CC50 was at most 0.63 µg/mL.

Take `OC1CN=C(c2ccc3cc(-c4ccc(-c5cc6ccc(C7=NCC(O)CN7)cc6o5)s4)[nH]c3c2)NC1` (configuration not stated): the MIC in data set [1] was 2.5 µg/mL (≈ 4.89 µM); in data set [3], 1.88 µg/mL (≈ 3.67 µM); in [4], 5 µg/mL (≈ 9.77 µM); in data set [5], 0.47 µg/mL (≈ 0.919 µM); in [6] it was 0.43 µg/mL (≈ 0.84 µM); in data set [7] it was 15 µg/mL (≈ 29.3 µM). Also, the MIC in [8] was found to be 40 µg/mL (≈ 78.2 µM); in data set [9], 1.25 µg/mL (≈ 2.44 µM). In [2], this compound gave a CC50 of 12.7 µg/mL (≈ 24.8 µM).

In the case of `CN(C)c1ccc(-c2ccc(-c3cc4ccc(C5=NCCCN5)cc4[nH]3)cc2)cc1`, the MIC in [1] is 3.1 µg/mL (≈ 7.86 µM); in [3], 1.09 µg/mL (≈ 2.76 µM); in [4], over 80 µg/mL; in [5], over 80 µg/mL; in data set [6] it was 0.63 µg/mL (≈ 1.6 µM); in data set [7] it was over 80 µg/mL. Moreover, the MIC in data set [8] is over 80 µg/mL; in [9], 0.47 µg/mL (≈ 1.19 µM). Further, the CC50 in [2] is at most 0.63 µg/mL.

As for `c1cc2cc(-c3ccc(-c4cn5cc(C6=NCCN6)ccc5n4)cc3)[nH]c2cc1C1=NCCN1`, the MIC in data set [1] came out at 20 µg/mL (≈ 44.9 µM); in data set [3], 80 µg/mL (≈ 180 µM); in [4], 40 µg/mL (≈ 89.8 µM); in [5], 0.63 µg/mL (≈ 1.41 µM); in data set [6] it was 0.31 µg/mL (≈ 0.696 µM); in [7], 80 µg/mL (≈ 180 µM). Moreover, the MIC in data set [8] is over 80 µg/mL; in [9], 40 µg/mL (≈ 89.8 µM).

As for `CC1CN=C(c2ccc3cc(-c4ccc(-c5cc6ccc(C7=NCC(C)CN7)cc6o5)cn4)[nH]c3c2)NC1` (configuration not stated), the MIC in data set [1] was 0.63 µg/mL (≈ 1.25 µM); in data set [3], 0.31 µg/mL (≈ 0.617 µM); in data set [4], 1.88 µg/mL (≈ 3.74 µM); in [5] it was 0.27 µg/mL (≈ 0.537 µM); in [6], 0.08 µg/mL (≈ 0.159 µM); in [7] it was 2.5 µg/mL (≈ 4.97 µM). The MIC in data set [8] worked out at 5 µg/mL (≈ 9.95 µM); in data set [9], 0.63 µg/mL (≈ 1.25 µM). In [2], this compound yielded a CC50 of 2.2 µg/mL (≈ 4.38 µM).

On to `c1cc2cc(-c3ccc(-c4cnc(N5CCOCC5)nc4)cc3)[nH]c2cc1C1=NCCCN1`, for which the MIC in data set [1] came to 3.75 µg/mL (≈ 8.55 µM); in data set [3] it was 7.5 µg/mL (≈ 17.1 µM); in data set [4] it was 35 µg/mL (≈ 79.8 µM); in data set [5] it was 0.63 µg/mL (≈ 1.44 µM); in data set [6] it was 0.78 µg/mL (≈ 1.78 µM); in [7], 70 µg/mL (≈ 160 µM). For the same compound, the MIC is over 80 µg/mL in [8] and 0.55 µg/mL (≈ 1.25 µM) in data set [9]. In addition, it took 2 µg/mL (≈ 4.56 µM) to reach half-maximal cytotoxicity in data set [2] (CC50).
